The values below come from patent US12649746B2, “Ketorolaco derivative, pharmaceutical composition and preparation method therefor and use thereof” (NANJING HERON PHARMACEUTICAL SCIENCE AND TECHNOLOGY CO., …, priority 2020, dated 2026).

Series [1] can be described thus: High temperature stability study of compounds (60° C.). It is filed as physicochemical. As to conditions: in the dark; for Ketorolac (%): related substance. As for the experimental part:
Test protocol: the compounds prepared in the present disclosure were placed in a colorless and transparent vial, placed in the dark at a high temperature (60° C.), and were sampled for day 0, day 5 and day 10, respectively, and the purity of the compounds and the change of the related substance (ketorolac) were determined.

Series [2] is described as follows: By-product toxicity test (metabolic byproducts in the human body). The following applies: for Metabolic by-products in human body: by the metabolic pathways of the compounds in the human body; for Toxicity: toxicity of the metabolic by-products in human body.
The nature of series [3]: Stability study of levorotatory enantiomer of compounds in solvent (MCT). It is filed as physicochemical. The following applies: MCT solution; for Isomer (%): dextrorotatory form. On the procedure:
2. Test method: the samples were prepared according to Table 2, wherein each sample was dispensed into 10 vials according to the lofting volume, and the samples were lofted according to Table 3.
4. The related substance was determined according to high performance liquid chromatography (General Chapter 0512, China Pharmacopoeia, 2015 Edition).
(1) Chromatographic conditions: the chromatography column was Agilent ZORBAX SB-C8, 4.6 mm×250 mm, 5 μm, and 0.1% phosphoric acid solution-acetonitrile (50:50) was used as a mobile phase; the detection wavelength was […]; the flow rate was 1.0 mL/min; the column temperature was 40° C., and linear gradient elution was performed according to the following table;
(§1) (2) Determination method: an appropriate amount of the product was weighed precisely, a diluent (absolute ethanol) was added and shaken to dissolve, and quantitatively diluted to give a solution containing 0.4 mg per 1 mL, the solution was […] by vortex for 30 s, and filtered with PTFE filter membrane (0.22 μm, JINTENG), and the filtrate was collected as a test sample solution. 10 μL of the solution was weighed precisely and injected into a liquid chromatograph, and a chromatogram was recorded; if an impurity peak existed in the chromatogram of the test sample solution, calculation was performed according to a peak area normalization method to give the target product.
5. Isomer determination was performed according to high performance liquid chromatography (General Chapter 0512, China Pharmacopoeia, 2015 Edition).
(1) Chromatographic conditions: cellulose-tris(3,5-dimethylphenylcarbamate)silica gel was used as filler (Chiralcel OD-H, 250×4.6 mm, 5 μm); n-hexane-isopropanol (90:10) was used as a mobile phase, and isocratic elution was performed for 25 min at a flow rate of 1.0 mL/min; the column temperature was 35° C.; the detection wavelength was 310 nm.
as §1, with “(n-hexane-isopropanol (90:10))” for “(absolute ethanol)”, “about 1.0” for “0.4”, “20” for “10”, “isomer” for “impurity”

Consider `CCC(OC(C)=O)OC(=O)C1CCn2c(C(=O)c3ccccc3)ccc21` (centres unmarked) [N3], for which, in series [1] (Day 0), the “Total main peak purity (%)” value amounted to 92.45% and the “Ketorolac (%)” value is recorded as 0.11%. In series [1] (Day 5), the “Total main peak purity (%)” value is 90.83% and the “Ketorolac (%)” value stood at 0.15%. In series [1] (Day 10), the “Total main peak purity (%)” value was 90.36% and the “Ketorolac (%)” value stood at 0.17%. For the same molecule, in series [2], the “Metabolic by-products in human body” value is “Propionaldehyde and acetic acid”; the Toxicity entry is recorded as “relatively low”.
In the case of `CCC(=O)OC(C)OC(=O)C1CCn2c(C(=O)c3ccccc3)ccc21` (centres unmarked) [N4], in series [1] (Day 0), the “Total main peak purity (%)” value is listed as 98.91% and the “Ketorolac (%)” value amounted to 0.12%. In addition, in series [1] (Day 5), the “Total main peak purity (%)” value came out at 98.38% and the “Ketorolac (%)” value was found to be 0.17%. In series [1] (Day 10), the “Total main peak purity (%)” value was found to be 98.04% and the “Ketorolac (%)” value came to 0.14%. Also, in series [2], the “Metabolic by-products in human body” value is “Acetaldehyde and propionic acid”; the Toxicity result is given as “relatively low”.
Regarding `CC(OC(=O)OC1CCCCC1)OC(=O)C1CCn2c(C(=O)c3ccccc3)ccc21` (centres unmarked) [N10], the “Total main peak purity (%)” value in series [1] (Day 0) is reported as 96.36%; in series [1] (Day 5), 94.28%; in series [1] (Day 10), 94.41%. Besides, the “Ketorolac (%)” value is 0.05% in series [1] (Day 0), 0.23% in series [1] (Day 5) and 0.37% in series [1] (Day 10). For the same molecule, the “Metabolic by-products in human body” value in series [2] is “Acetaldehyde and cyclohexanol”. Further, in series [2], the Toxicity entry is “relatively low toxicity of byproducts”.
For the molecule `COC(=O)OC(C)OC(=O)C1CCn2c(C(=O)c3ccccc3)ccc21` (centres unmarked) [N13], in series [2], the “Metabolic by-products in human body” value was “Acetaldehyde and methanol”; the Toxicity result is given as “Methanol is more toxic”.
With `CCC(OC(=O)OC(C)C)OC(=O)[C@H]1CCn2c(C(=O)c3ccccc3)ccc21` (stereo partly drawn) [N16(S)], the “Ketorolac (%)” value in series [3] (5° C., Day 5) worked out at 0.03%; in series [3] (5° C., Day 15), 0.02%; in series [3] (5° C., Day 30) it was 0.03%; in series [3] (5° C., day 0), 0.02%; in series [3] (25° C., Day 5), 0.03%; in series [3] (25° C., Day 15) it was 0.03%. Besides, the “Ketorolac (%)” value in series [3] (25° C., Day 30) turned out to be 0.04%; in series [3] (25° C., day 0), 0.02%; in series [3] (60° C., Day 5) it was 0.05%; in series [3] (60° C., Day 15) it was 0.12%; in series [3] (60° C., Day 30), 0.24%; in series [3] (60° C., day 0), 0.02%. Also, the “Purity (%)” value in series [3] (5° C., Day 5) turned out to be 99.55%; in series [3] (5° C., Day 15) it was 99.65%; in series [3] (5° C., Day 30), 99.52%; in series [3] (5° C., day 0), 99.71%; in series [3] (25° C., Day 5) it was 99.52%; in series [3] (25° C., Day 15), 99.63%. Besides, the “Purity (%)” value was 99.48% in series [3] (25° C., Day 30); 99.71% in series [3] (25° C., day 0); 99.52% in series [3] (60° C., Day 5); 99.51% in series [3] (60° C., Day 15); 99.27% in series [3] (60° C., Day 30); 99.71% in series [3] (60° C., day 0). For the same molecule, the “Isomer (%)” value in series [3] (5° C., Day 5) turned out to be 2.47%; in series [3] (5° C., Day 15), 2.6%; in series [3] (5° C., Day 30), 2.58%; in series [3] (5° C., day 0), 2.46%; in series [3] (25° C., Day 5), 2.47%; in series [3] (25° C., Day 15), 2.6%. In addition, the “Isomer (%)” value in series [3] (25° C., Day 30) was 2.59%; in series [3] (25° C., day 0), 2.46%; in series [3] (60° C., Day 5), 2.48%; in series [3] (60° C., Day 15), 2.61%; in series [3] (60° C., Day 30), 2.63%; in series [3] (60° C., day 0), 2.46%.
On to `CCOC(=O)OC(OC(=O)C1CCn2c(C(=O)c3ccccc3)ccc21)C(C)C` (centres unmarked) [N18], for which the “Total main peak purity (%)” value in series [1] (Day 0) was 94.25%; in series [1] (Day 5), 92.10%; in series [1] (Day 10) it was 91.78%. Moreover, the results for the “Ketorolac (%)” value in series [1] (Day 0), in series [1] (Day 5) and in series [1] (Day 10) were 0.06%, 0.18% and 0.26%, respectively.
Turning to `CC(OC(=O)C1CCn2c(C(=O)c3ccccc3)ccc21)OC(=O)C(C)(C)C` (centres unmarked) [N7], in series [1] (Day 0), the “Total main peak purity (%)” value worked out at 90.83% and the “Ketorolac (%)” value is 0.18%. In addition, in series [1] (Day 5), the “Total main peak purity (%)” value turned out to be 88.66% and the “Ketorolac (%)” value was 0.25%. Further, in series [1] (Day 10), the “Total main peak purity (%)” value came to 88.59% and the “Ketorolac (%)” value is listed as 0.32%. Moreover, in series [2], the “Metabolic by-products in human body” value was “Acetaldehyde and pivalic acid”; the Toxicity entry is listed as “Pivalic acid is more toxic”.
Consider `CC(C)OC(=O)OC(OC(=O)C1CCn2c(C(=O)c3ccccc3)ccc21)C(C)C` (centres unmarked) [N19], for which the figures for the “Total main peak purity (%)” value in series [1] (Day 0), in series [1] (Day 5) and in series [1] (Day 10) were 96.30%, 94.61% and 94.41%, respectively. In addition, the figures for the “Ketorolac (%)” value in series [1] (Day 0), in series [1] (Day 5) and in series [1] (Day 10) were 0.07%, 0.09% and 0.12%, respectively.
As to `CC(C)OC(=O)OC(C)OC(=O)[C@H]1CCn2c(C(=O)c3ccccc3)ccc21` (stereo partly drawn) [N2(S)], the “Ketorolac (%)” value in series [3] (5° C., Day 5) is given as 0.2%; in series [3] (5° C., Day 15) it was 0.14%; in series [3] (5° C., Day 30) it was 0.25%; in series [3] (5° C., day 0) it was 0.16%; in series [3] (25° C., Day 5), 0.21%; in series [3] (25° C., Day 15), 0.17%. The “Ketorolac (%)” value is reported as 0.28% in series [3] (25° C., Day 30); 0.16% in series [3] (25° C., day 0); 0.3% in series [3] (60° C., Day 5); 0.49% in series [3] (60° C., Day 15); 0.65% in series [3] (60° C., Day 30); 0.16% in series [3] (60° C., day 0). In addition, the “Purity (%)” value amounted to 99.08% in series [3] (5° C., Day 5); 99.18% in series [3] (5° C., Day 15); 99.01% in series [3] (5° C., Day 30); 99.14% in series [3] (5° C., day 0); 99.08% in series [3] (25° C., Day 5); 99.13% in series [3] (25° C., Day 15). Further, the “Purity (%)” value was 98.95% in series [3] (25° C., Day 30); 99.14% in series [3] (25° C., day 0); 98.92% in series [3] (60° C., Day 5); 98.67% in series [3] (60° C., Day 15); 98.38% in series [3] (60° C., Day 30); 99.14% in series [3] (60° C., day 0). Further, the “Isomer (%)” value turned out to be 5.63% in series [3] (5° C., Day 5); 5.87% in series [3] (5° C., Day 15); 5.99% in series [3] (5° C., Day 30); 5.65% in series [3] (5° C., day 0); 5.66% in series [3] (25° C., Day 5); 5.86% in series [3] (25° C., Day 15). The “Isomer (%)” value amounted to 6.01% in series [3] (25° C., Day 30); 5.65% in series [3] (25° C., day 0); 5.7% in series [3] (60° C., Day 5); 5.89% in series [3] (60° C., Day 15); 6.13% in series [3] (60° C., Day 30); 5.65% in series [3] (60° C., day 0).
Regarding `CC(OC(=O)C(C)C)OC(=O)C1CCn2c(C(=O)c3ccccc3)ccc21` (centres unmarked) [N6], the “Total main peak purity (%)” value in series [1] (Day 0) is reported as 91.56%; in series [1] (Day 5), 90.94%; in series [1] (Day 10) it was 90.22%. Further, the “Ketorolac (%)” value in series [1] (Day 0) is 0.14%; in series [1] (Day 5), 0.13%; in series [1] (Day 10), 0.17%. For the same molecule, the “Metabolic by-products in human body” value in series [2] was “Acetaldehyde and isobutyric acid”.
For the molecule `CCC(=O)OC(OC(=O)C1CCn2c(C(=O)c3ccccc3)ccc21)C(C)C` (centres unmarked) [N9], the “Total main peak purity (%)” value in series [1] (Day 0) is recorded as 96.21%; in series [1] (Day 5), 95.58%; in series [1] (Day 10), 95.21%. Further, the “Ketorolac (%)” value in series [1] (Day 0) came to 0.29%; in series [1] (Day 5), 0.31%; in series [1] (Day 10) it was 0.30%.
